Source: patent US11117900B2 (Vertex Pharmaceuticals Incorporated, priority 2012, dated 2021)

Tested on: HCT116 colorectal cancer cells
Experiment: Cisplatin sensitization assay (96 h MTS cell viability);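 also: compound concentration needed to lower the IC50 of Cisplatin alone by a set fold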
Type: cell-based
Conditions: Cisplatin sensitization value
Method in brief: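 The MTS viability read, after 1 h with reagent, followed 96 h of co-treatment at 37° C. in 5% CO2. Both compound and cisplatin were titrated 2-fold from a 10 μM top final concentration in a complete concentration matrix on HCT116 cells. Scores +++/++/+ reflect cisplatin sensitization value ranges.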

SMILES | Cisplatin Sensitization Assay
Nc1nn2cc(Cl)cnc2c1C(=O)Nc1cnccc1O[C@@H]1CCOC1 [I-O-54, (R)-2-amino-6-chloro-N-(4-((tetrahydrofuran-3-yl)oxy)pyridin-3-yl)pyrazolo[1,5-a]pyrimidine-3-carboxamide] | +++ (Compounds with a Cisplatin sensitization value of <0.02 μM are marked with “+++.”)
N#CCc1cnc2c(C(=O)Nc3cnccc3N3CCCC3)c(N)nn2c1 [I-N-77, 2-amino-6-(cyanomethyl)-N-(4-(pyrrolidin-1-yl)pyridin-3-yl)pyrazolo[1,5-a]pyrimidine-3-carboxamide] | + (Compounds with a Cisplatin sensitization value >0.2 μM but <5 μM are marked with “+.”)
Nc1nn2cc(Cl)cnc2c1C(=O)Nc1cnccc1N1CCC(N2CCC23COC3)CC1 [I-N-109, N-(4-(4-(6-oxa-1-azaspiro[3.3]heptan-1-yl)piperidin-1-yl)pyridin-3-yl)-2-amino-6-chloropyrazolo[1,5-a]pyrimidine-3-carboxamide] | +++ (Compounds with a Cisplatin sensitization value of <0.02 μM are marked with “+++.”)
N#CCc1cnc2c(C(=O)Nc3cnccc3OC3CCCC3)c(N)nn2c1 [I-O-43, 2-amino-6-(cyanomethyl)-N-(4-(cyclopentyloxy)pyridin-3-yl)pyrazolo[1,5-a]pyrimidine-3-carboxamide] | +++ (Compounds with a Cisplatin sensitization value of <0.02 μM are marked with “+++.”)
CS(=O)(=O)C1CCN(c2c(Cl)cncc2NC(=O)c2c(N)nn3cc(F)cnc23)C1 (stereo not shown) [I-N-287, 2-amino-N-(5-chloro-4-(3-(methylsulfonyl)pyrrolidin-1-yl)pyridin-3-yl)-6-fluoropyrazolo[1,5-a]pyrimidine-3-carboxamide] | +++ (Compounds with a Cisplatin sensitization value of <0.02 μM are marked with “+++.”)
Nc1nn2cc(F)cnc2c1C(=O)Nc1cncc(F)c1N1CCN2C(=O)CCCC2C1 (stereo not shown) [I-N-277, 2-amino-6-fluoro-N-(5-fluoro-4-(6-oxohexahydro-1H-pyrido[1,2-a]pyrazin-2(6H)-yl)pyridin-3-yl)pyrazolo[1,5-a]pyrimidine-3-carboxamide] | +++ (Compounds with a Cisplatin sensitization value of <0.02 μM are marked with “+++.”)
Nc1nn2cc(F)cnc2c1C(=O)Nc1cnccc1N1CCN2[C@@H](CCS2(=O)=O)C1 [I-N-247, (S)-2-amino-N-(4-(1,1-dioxidotetrahydro-2H-isothiazolo[2,3-a]pyrazin-5(3H)-yl)pyridin-3-yl)-6-fluoropyrazolo[1,5-a]pyrimidine-3-carboxamide] | +++ (Compounds with a Cisplatin sensitization value of <0.02 μM are marked with “+++.”)
Nc1nn2cc(Cl)cnc2c1C(=O)Nc1cnccc1O[C@H]1C[C@]2(CCN2)C1 [I-O-78, N-(4-((4s,6r)-1-azaspiro[3.3]heptan-6-yloxy)pyridin-3-yl)-2-amino-6-chloropyrazolo[1,5-a]pyrimidine-3-carboxamide] | + (Compounds with a Cisplatin sensitization value >0.2 μM but <5 μM are marked with “+.”)
COCCS(=O)(=O)C1CCN(c2ccncc2NC(=O)c2c(N)nn3cc(F)cnc23)CC1 [I-N-208, 2-amino-6-fluoro-N-(4-(4-((2-methoxyethyl)sulfonyl)piperidin-1-yl)pyridin-3-yl)pyrazolo[1,5-a]pyrimidine-3-carboxamide] | +++ (Compounds with a Cisplatin sensitization value of <0.02 μM are marked with “+++.”)
Nc1nn2cc(F)cnc2c1C(=O)Nc1cnccc1Oc1cccnc1 [I-O-7, 2-amino-6-fluoro-N-(4-(pyridin-3-yloxy)pyridin-3-yl)pyrazolo[1,5-a]pyrimidine-3-carboxamide] | ++ (Compounds with a Cisplatin sensitization value >0.02 μM but <0.2 μM are marked with “++.”)
